This passage reports EC50 results from ChEMBL document CHEMBL5729653, “Substituted pyridotriazine compounds and uses thereof” (2023).

The nature of the first experiment: HIV MT-4 Serum Shift Antiviral Reporter Assay: To quantify the amount of protein binding to human serum, compounds were serially diluted (1:3) in DMSO and acoustically transferred onto 384-well assay plates via a Labcyte ECHO robot. Each plate contained up to 8 test compounds, including negative and positive controls, (DMSO, 5 μM AZT respectively). Assay plates were prepared in duplicate, and tested in either CCM (cell culture media) or HS/CCM (human serum/cell culture media). MT-4 cells were first pre-infected with pLai RLuc reporter virus for 2 h at 37° C., then further diluted in either CCM (RPMI media, 10% FBS, 1% P/S) or HS/CCM (RPMI media, 10% FBS, 50% HS, 1% P/S), and subsequently added to each plate using a Biotek Micro Flow dispenser. After a 72-h incubation in a humidified and temperature controlled incubator (37° C.), Renilla Glo (Promega) was added to all assay plates and chemiluminescence read using an Envision plate-reader. EC50 values were defined as the compound concentration that causes a 50% decrease in luminescence signal, and were calculated using a sigmoidal dose-response model to generate curve fits. To determine the amount of protein binding, EC50 fold shifts (or EC50 shifts) were calculated by dividing EC50 (HS/CCM)/EC50 (CCM).
Details: not given
For the compound `CO[C@@H]1C=C[C@H](C)N2CN1n1cc(C(=O)NCc3c(F)cc(F)cc3F)c(=O)c(O)c1C2=O`, the EC50 was 1.8 nM. Still for that read-out and setting: next, `C[C@@H]1CC[C@H](C)N2CN1n1cc(C(=O)NCc3ccc(F)cc3F)c(=O)c(O)c1C2=O`: 1.5 nM; `C[C@H]1C=CC2(CCC2)N2CN1C(=O)c1c(O)c(=O)c(C(=O)NCc3c(F)cc(F)cc3F)cn12`: 3 nM; `C[C@@H]1C=C[C@H](CF)N2CN1n1cc(C(=O)NCc3ccc(F)cc3F)c(=O)c(O)c1C2=O`: 1.9 nM.

`C[C@H]1C=C[C@H](C)N2CN1C(=O)c1c(O)c(=O)c(C(=O)NCc3c(F)cc(F)cc3F)cn12`: the EC50 is 1.4 nM.

Staying with this experiment, now noted: MT4, 2 h.
Take `CC1=C[C@H](C)N2CN([C@@H]1C)n1cc(C(=O)NCc3ccc(F)cc3F)c(=O)c(O)c1C2=O`: the 50% effective concentration (EC50) was 1.4 nM. As for `C[C@@H]1C[C@H](O)[C@H](O)CN2CN1n1cc(C(=O)NCc3ccc(F)cc3F)c(=O)c(O)c1C2=O`, the EC50 was 1.5 nM.

In general, EC50 refers to the midpoint of the concentration-response curve.
